Source: ChEMBL document CHEMBL1147372, “Bioactive metabolites from Sicilian marine fennel, Crithmum maritimum” (J Nat Prod, 1993)
≈ marks a conversion by molar mass, not a printed value.

Experiment: Toxicity in Artemia salina after 24 hrs
Assay type: organism-based
Settings: in vivo
With `COc1cc(C=O)ccc1OC/C=C(\C)CCC=C(C)C` [GERANYLOXYVANILLIN] the LC50 at 24 h was 85.8 µg/mL (≈ 298 µM).
`C=C[C@H](O)C#CC#CC/C=C\CCCCCCC` [FALCARINOL] gave an LC50 at 24 h of 0.67 µg/mL (≈ 2.74 µM).
In the case of `C=C[C@@H](O)C#CC#C[C@@H](O)/C=C\CCCCCCC` [FALCARINDIOL], the LC50 at 24 h is reported as 3.32 µg/mL (≈ 12.8 µM).
